Measurements from patent publication US8455226B2, “Method for producing metal nanoparticles” (Janssen Pharmaceutica N.V., priority 2006, dated 2013).

Experiments:
[1] = tested on: Escherichia coli; test: Antimicrobial activity on a solid growth medium for Escherichia coli (Example 4); format: cell-based; settings: 24 hours at 30° C., plated 2×10^6 CFU/mL
Method: 100 mL of a silver suspension with an Ag concentration of 5 mM, in the form of nanosilver deposited on Lactobacillus fermentum biomass as obtained in example 1, was plated onto a solidified growth medium for culturing Escherichia coli (Luria Bertani Agar). As a control, 100 mL of a solution of 5 mM AgNO3 in sterile milliQ water with 0.1 N NaOH were plated on the same growth medium. This setting agreed with a total amount of 0.05 mg Ag per agar plate, or 11 mg Ag per m^2 of total surface area. This experiment was repeated with twofold the latter concentrations, i.e. with 0.11 mg Ag per agar plate or 22 mg Ag per m^2 of total surface area.
By plating these silver suspensions, a homogeneous layer of Ag(I)NO3, or nano-Ag respectively, was applied onto the solidified growth media.
After pre-treating the solidified growth medium in this way, 100 μL of a 2×10^6 CFU/mL Escherichia coli suspension in physiological solution (8.5 g NaCl/L in sterile water) was plated on the pre-treated agar plates. The plates were then incubated during 24 hours at 30° C. and colonies were counted. The count results are illustrated by FIG. 1. At nano-Ag concentrations of 11 mg Ag/m^2 and 22 mg Ag/m^2, no viable cells of E. coli could be detected on the treated solid growth medium (<detection limit (D.L.)=1×10^1 CFU/ml). […]

[2] = tested on: some bacteria; settings: cited from earlier work

SMILES	viable cells of E. coli on treated solid growth medium ([1]; 11 mg Ag/m^2)	viable cells of E. coli on treated solid growth medium ([1]; 22 mg Ag/m^2)	concentration known to inhibit the growth of some bacteria [2]
O=[N+]([O-])[O-].[Ag+] [Ag(I)NO3, AgNO3]	4×10^2 CFU/ml	1×10^2 CFU/ml	
OO [Hydrogen peroxide]			25 mg/L
